Results as given in patent US7906655B2, “Hepatitis C virus inhibitors” (Bristol-Myers Squibb Company, priority 2008, dated 2011).

Test system: HCV 1b genotype
Assay: HCV Replicon assay (HCV-neo replicon cells, wild-type)
Format: cell-based
Conditions: Hepatitis C virus, HCV 1b genotype replicon; class symbols
How it was run: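 Assay used wild-type HCV genotype 1b replicon cells carrying neo, with luciferase reporter read-outs in some formats.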

Q: Which EC50 does the source give for `COC(=O)N[C@H](C(=O)N1[C@@H]2C[C@@H]2C[C@H]1c1nc2cc(Oc3cccc(-c4ccc5[nH]c([C@@H]6C[C@H]7C[C@H]7N6C(=O)[C@@H](NC(=O)OC)C(C)C)nc5c4)c3)ccc2[nH]1)C(C)C` [Example V1, Methyl((1S)-1-(((1R,3S,5R)-3-(5-(3-(2-((1R,3S,5R)-2-((2S)-2-((methoxycarbonyl)amino)-3-methylbutanoyl)-2-azabicyclo[3.1.0]hex-3-yl)-1H-benzimidazol-5-yl)phenoxy)-1H-benzimidazol-2-yl)-2-azabicyclo[3.1.0]hex-2-yl)carbonyl)-2-methylpropyl)carbamate] here?
A: Its EC50 is < 4.57 nM.

Q: For `COC(=O)N[C@@H](C)C(=O)N1CCC[C@H]1c1nc2cc(C#Cc3ccc4[nH]c([C@@H]5CCCN5C(=O)[C@H](C)NC(=O)OC)nc4c3)ccc2[nH]1` [Example M25, methyl ((1S)-2-((2S)-2-(5-((2-((2S)-1-(N-(methoxycarbonyl)-L-alanyl)-2-pyrrolidinyl)-1H-benzimidazol-5-yl)ethynyl)-1H-benzimidazol-2-yl)-1-pyrrolidinyl)-1-methyl-2-oxoethyl)carbamate], which EC50 is on record?
A: The EC50 was 4.57 to 99 nM.

Q: `CC(C)(C)O[C@@H]1C[C@@H](c2nc3cc(C#Cc4ccc5nc([C@@H]6C[C@@H](OC(C)(C)C)CN6C(=O)OCc6ccccc6)[nH]c5c4)ccc3[nH]2)N(C(=O)OCc2ccccc2)C1` [Example F10, benzyl (2S,4R)-2-(5-((2-((2S,4R)-1-((benzyloxy)carbonyl)-4-tert-butoxy-2-pyrrolidinyl)-1H-benzimidazol-6-yl)ethynyl)-1H-benzimidazol-2-yl)-4-tert-butoxy-1-pyrrolidinecarboxylate] was tested. Which EC50 did it give?
A: Its EC50 is 4.57 to 99 nM.

Q: For `COC(=O)N[C@@H](C(=O)N1CCC[C@H]1c1nc2ccc(C(=O)c3ccc4nc([C@@H]5CCCN5C(=O)[C@H](NC(=O)OC)c5ccccc5)[nH]c4c3)cc2[nH]1)c1ccccc1` [Example J33], which EC50 is on record?
A: Its EC50 is < 4.57 nM.

Q: For `CO[C@@H]1C[C@@H](c2nc3cc(C#Cc4ccc5nc([C@@H]6C[C@@H](OC)CN6C(=O)OCc6ccccc6)[nH]c5c4)ccc3[nH]2)N(C(=O)OCc2ccccc2)C1` [Example F8, benzyl (2S,4R)-2-(5-((2-((2S,4R)-1-((benzyloxy)carbonyl)-4-methoxy-2-pyrrolidinyl)-1H-benzimidazol-6-yl)ethynyl)-1H-benzimidazol-2-yl)-4-methoxy-1-pyrrolidinecarboxylate], which EC50 is on record?
A: The EC50 was < 4.57 nM.

Q: With `COC(=O)N[C@@H](C(=O)N1CCC[C@H]1c1nc2c(-c3ncc(-c4ccc5[nH]c([C@@H]6CCCN6C(=O)[C@H](NC(C)=O)c6ccccc6)nc5c4)o3)cccc2[nH]1)c1ccccc1` (mixture of isomers) [Example J6.1, methyl ((1R)-2-((2S)-2-(4-(5-(2-((2S)-1-(acetamido (phenyl)acetyl)-2-pyrrolidinyl)-1H-benzimidazol-5-yl)-1,3-oxazol-2-yl)-1H-benzimidazol-2-yl)-1-pyrrolidinyl)-2-oxo-1-phenylethyl) carbamate] as the compound, how does the EC50 read?
A: The EC50 was < 4.57 nM.

Q: With `CCC(=O)N1CCC[C@H]1c1nc2ccc(C#Cc3ccc4[nH]c([C@@H]5CCCN5C(=O)[C@H]5CCCO5)nc4c3)cc2[nH]1` [Example M54.7, 5-((2-((2S)-1-propionyl-2-pyrrolidinyl)-1H-benzimidazol-6-yl)ethynyl)-2-((2S)-1-((2R)-tetrahydro-2-furanylcarbonyl)-2-pyrrolidinyl)-1H-benzimidazole] as the compound, how does the EC50 read?
A: Its EC50 is 4.57 to 99 nM.

Q: For `O=C(OCc1ccccc1)N1CCC[C@H]1c1nc2cc(C#Cc3ccc4nc([C@@H]5CCCN5C(=O)OCc5ccccc5)[nH]c4c3)ccc2[nH]1` [Example M26.4, benzyl (2S)-2-(5-((2-((2S)-1-((benzyloxy)carbonyl)-2-pyrrolidinyl)-1H-benzimidazol-6-yl)ethynyl)-1H-benzimidazol-2-yl)-1-pyrrolidinecarboxylate], which EC50 is on record?
A: Its EC50 is 4.57 to 99 nM.

Q: Which EC50 does the source give for `O=C(Cc1ccccc1)N1C[C@@H](N2CCOCC2)C[C@H]1c1nc2cc(C#Cc3ccc4[nH]c([C@@H]5C[C@H](N6CCOCC6)CN5C(=O)Cc5ccccc5)nc4c3)ccc2[nH]1` [Example M37.3, 5,5′-(1,2-ethynediyl)bis(2-((2S,4S)-4-(4-morpholinyl)-1-(phenylacetyl)-2-pyrrolidinyl)-1H-benzimidazole)] here?
A: Its EC50 is 4.57 to 99 nM.
